Source: ChEMBL document CHEMBL1201862, “PubChem BioAssay data set” (2004)
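Assay format: 96-well plates, 48-hour exposure. The concentration for 50% growth inhibition is given as GI50.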 Active and inactive are the calls of the source. Rule as the data show it: active = GI50 up to about 1.1 µM and inactive = higher.

Columns and labels:
Assay in all cases: NCI-60 cell line screen, 48 h
[1] = test system: KM-20L2
[2] = test system: SF-268
[3] = test system: SNB-78
[4] = test system: HL-60
[5] = test system: RXF 393
[6] = test system: SR
[7] = test system: OVCAR-4
[8] = test system: KM12
[9] = test system: HCT-116
[10] = test system: DMS-114
[11] = test system: DMS-273
[12] = test system: RPMI-8226
[13] = test system: UACC-62

Measured: GI50

O=C1c2cccc(O)c2C(=O)c2c(O)cc(CO)cc21 [ALOE-EMODIN]
inactive: [1] 39.4 µM | [2] 52.4 µM | [3] > 100 µM | [4] 24.8 µM | [5] > 100 µM | [6] 32.9 µM | [7] 77.8 µM | [8] 40.2 µM | [9] 30.1 µM | [10] 28.2 µM | [11] 27.5 µM | [12] 31.5 µM

C=C1C(=O)OC2C[C@@]3(C)CCCC(=C)C3CC12 (some centres not stated)
inactive: [1] 12.2 µM | [2] 12.9 µM | [3] 3.27 µM | [5] 2.77 µM | [6] > 100 µM | [13] 5.56 µM | [7] 13.4 µM | [8] 2.24 µM | [9] 4.05 µM | [10] 16.2 µM | [11] 2.54 µM

CC1=C2C(O)C(C(C)C(=O)N(C)C)CCC2(C)C=CC1=O (configuration not stated)
inactive: [1] > 100 µM | [2] > 100 µM | [3] > 100 µM | [4] > 100 µM | [5] > 100 µM | [13] > 100 µM | [7] > 100 µM | [8] > 100 µM | [9] > 100 µM | [10] > 100 µM | [11] > 100 µM | [12] > 100 µM

O=C(CCN1CCOCC1)/C(=C/c1ccccc1)c1ccccc1
inactive: [1] 9.82 µM | [2] 7.11 µM | [3] 5.51 µM | [4] 1.79 µM | [5] 1.57 µM | [13] 2.49 µM | [7] 10.3 µM | [8] 6.25 µM | [9] 3.47 µM | [10] 3.06 µM | [11] 6.28 µM | [12] 2 µM
